pIC50: −log10 of the molar value.
What was measured:
BACE1 [1] = biological target: T1, BACE1 (Homo sapiens, UniProt P56817); assay: In Vitro Enzymatic BACE FRET (Fluorescence Resonance Energy Transfer) Assay; format: biochemical; details: read-out: BACE1 FRET assay; for IC50: Table III, IC50's in uM ranges
Procedure, shortened: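 Run in 0.05 M acetate pH 4.2 with 10% DMSO final and 100 uM genapol detergent below its CMC. Reaction was started with 50 nM FRET peptide substrate (fluorophore and quencher flanking the BACE cleavage site), incubated one hour, stopped with Tris to neutral pH, and fluorescence read.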

BACE1 [2] = biological target: T1, BACE1; assay: In Vitro BACE Cell-based Assay (HEK cell assay): Aβ40 in conditioned medium of cells stably expressing Amyloid Precursor Protein, sandwich ELISA; details: read-out: HEK cell assay; for IC50: Table III, IC50's in uM ranges
Procedure, shortened: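 Conditioned medium Aβ40 by ELISA: pAb40 capture 3 h 4° C., biotin-6E10 detection 2 h 4° C., Streptavidin-Europium TRF. IC50 fitted from % control.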

[3] = in vitro BACE FRET enzyme assay, IC50 class symbols
[4] = HEK cell-based assay, Aβ40 in conditioned medium, IC50 class symbols
[5] = Table II, Aβ40, 24 h incubation

T1 sequence (P56817 46-501, species assumed): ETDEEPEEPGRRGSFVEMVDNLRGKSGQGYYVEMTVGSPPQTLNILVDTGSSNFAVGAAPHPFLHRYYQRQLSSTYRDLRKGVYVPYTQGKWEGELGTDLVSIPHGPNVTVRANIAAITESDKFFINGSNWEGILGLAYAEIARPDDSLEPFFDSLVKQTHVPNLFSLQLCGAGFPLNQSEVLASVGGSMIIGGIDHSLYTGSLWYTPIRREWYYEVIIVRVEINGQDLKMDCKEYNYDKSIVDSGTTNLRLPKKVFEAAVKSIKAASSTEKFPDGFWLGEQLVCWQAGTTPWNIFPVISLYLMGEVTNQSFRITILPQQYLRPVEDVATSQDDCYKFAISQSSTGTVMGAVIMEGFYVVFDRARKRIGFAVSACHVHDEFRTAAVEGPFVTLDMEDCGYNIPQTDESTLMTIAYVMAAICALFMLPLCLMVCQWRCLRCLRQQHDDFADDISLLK

For NC1=NC2(CO1)c1cc(-c3cccnc3)ccc1Oc1ncc(-c3cccnc3)cc12 (stereo not shown) [Example 113, 3,7-di-3-pyridinylspiro[chromeno[2,3-b]pyridine-5,4′-[1,3]oxazol]-2′-amine], the IC50 (BACE1 [1]) was less than 0.1 µM and the IC50 (BACE1 [2]) was less than 0.1 µM.
CC(C)(C)CC(O)c1ccc2c(c1)[C@@]1(COC(N)=N1)c1cc(-c3ccc(F)nc3)ccc1O2 (stereo partly shown) [162b] was tested, and the IC50 (BACE1 [1]) was 0.1 to 1 µM and the IC50 (BACE1 [2]) was 0.1 to 1 µM.
In the case of Cc1cscc1-c1ccc2c(c1)[C@@]1(COC(N)=N1)c1cc(OCC(C)(C)C)ccc1O2 [compound 738], the pIC50 (BACE1 [1]) was 6.00 to 7.00 and the pIC50 (BACE1 [2]) was 5.30 to 6.00.
COc1cnc2c(c1)[C@]1(COC(N)=N1)c1cc(Br)ccc1O2 [compound 542] gave a pIC50 (BACE1 [1]; Table IV, class symbols) of 5.30 to 6.00 and a pIC50 (BACE1 [2]; Table IV, class symbols) of less than 5.30.
NC1=N[C@]2(CO1)c1cc(Br)ccc1Oc1ccc(-c3cncnc3)cc12 [compound 686] showed a pIC50 (BACE1 [1]) of 6.00 to 7.00 and a pIC50 (BACE1 [2]) of 6.00 to 7.00.
NC1=N[C@@]2(CO1)c1cc(-c3cncnc3)ccc1Oc1c(F)cc(OCC3CC3(F)F)cc12 (stereo partly shown) [compound 507] showed a pIC50 (BACE1 [1]) greater than 7.00 and a pIC50 (BACE1 [2]; HEK cells) greater than 7.00.
Compound COc1cc(F)c2c(c1)[C@]1(COC(N)=N1)c1cc(-c3cncnc3)ccc1O2 [compound 581] has a pIC50 (BACE1 [1]; Table IV, class symbols) greater than 7.00 and a pIC50 (BACE1 [2]; Table IV, class symbols) greater than 7.00.
With COc1ccc2c(c1)[C@]1(COC(N)=N1)c1cc(NC(=O)c3ccc(Cl)cn3)ccc1O2 [compound 652, N-((4S)-2-amino-7′-methoxyspiro[1,3-oxazole-4,9′-xanthen]-2′-yl)-5-chloro-2-pyridinecarboxamide] the pIC50 (BACE1 [1]; Table IV, class symbols) was greater than 7.00 and the pIC50 (BACE1 [2]; Table IV, class symbols) was 6.00 to 7.00.
In the case of C[Si](C)(C)C#Cc1cnc2c(c1)[C@]1(COC(N)=N1)c1cc(-c3cccnc3)ccc1O2 [compound 348], the pIC50 (BACE1 [1]; [3]) was greater than 7.00 and the pIC50 (BACE1 [2]; [4]) was greater than 7.00.
With COc1ccc2c(c1)[C@]1(COC(N)=N1)c1cc(-c3cc(Cl)ccc3F)ccc1O2 [Example 12, (4S)-2′-(5-chloro-2-fluorophenyl)-7′-methoxyspiro[1,3-oxazole-4,9′-xanthen]-2-amine trifluoroacetic acid] the pIC50 (BACE1 [1]; Table 1) was 6.00 to 7.00 and the pIC50 (BACE1 [2]; Table 1, Aβ40, 24 h incubation) was less than 5.30.
For CC(C)OCCOc1ccc2c(c1)[C@]1(COC(N)=N1)c1cc(-c3cncnc3)ccc1O2 [compound 180], the IC50 (BACE1 [1]) was less than 0.1 µM and the IC50 (BACE1 [2]) was 0.1 to 1 µM.
Compound CC(C)(C)COc1ccc2c(c1)[C@]1(COC(N)=N1)c1cc(-c3ccc(=O)[nH]c3)ccc1O2 [compound 980] has a pIC50 (BACE1 [1]) of 6.00 to 7.00 and a pIC50 (BACE1 [2]) of 5.30 to 6.00.
CC(C)(O)COc1ccc2c(c1)[C@]1(COC(N)=N1)c1cc(-c3cccnc3F)ccc1O2 [compound 906] gave a pIC50 (BACE1 [1]; Table IV, class symbols) greater than 7.00 and a pIC50 (BACE1 [2]; Table IV, class symbols) greater than 7.00.
NC1=N[C@]2(CO1)c1cc(OCC(C(F)(F)F)C(F)(F)F)ccc1Oc1ccc(-c3cncnc3)cc12 [compound 163] showed an IC50 (BACE1 [1]) of 0.1 to 1 µM and an IC50 (BACE1 [2]) of 0.1 to 1 µM.
For CCCc1ccc2c(c1)[C@@]1(COC(N)=N1)c1cc(-c3cncnc3)ccc1O2 [Example 53, (4S)-2′-propyl-7′-(5-pyrimidinyl)spiro[1,3-oxazole-4,9′-xanthen]-2-amine], the pIC50 (BACE1 [1]; Table II) was greater than 7.00 and the pIC50 (BACE1 [2]; [5]) was 6.00 to 7.00.
C=C(C)COc1ccc2c(c1)[C@]1(COC(N)=N1)c1cc(-c3cncnc3)ccc1O2 [compound 139] gave an IC50 (BACE1 [1]) of less than 0.1 µM and an IC50 (BACE1 [2]) of less than 0.1 µM.
COCC[C@H]1CN(c2ccc3c(c2)[C@]2(COC(N)=N2)c2cc(-c4cccnc4)ccc2O3)CCO1 [compound 361] was tested, and the pIC50 (BACE1 [1]; [3]) was 6.00 to 7.00 and the pIC50 (BACE1 [2]; [4]) was greater than 7.00.
Compound NC1=N[C@@]2(CO1)c1cc(-c3cccnc3)ccc1Oc1ccc(N3CCOCC3)cc12 [compound 764] has a pIC50 (BACE1 [1]) greater than 7.00 and a pIC50 (BACE1 [2]) greater than 7.00.
COC(C)(C)CCc1ccc2c(c1)[C@]1(COC(N)=N1)c1cc(-c3cncnc3)ccc1O2 [Example 122, (R)-2′-(3-methoxy-3-methylbutyl)-7′-(pyrimidin-5-yl)-5H-spiro[oxazole-4,9′-xanthen]-2-amine] showed an IC50 (BACE1 [1]) of less than 0.1 µM and an IC50 (BACE1 [2]) of less than 0.1 µM.
With CC1(COc2ccc3c(c2)[C@@]2(COC(N)=N2)c2cc(C#CC4CC4)cnc2O3)COC1 [compound 967] the pIC50 (BACE1 [1]) was greater than 7.00 and the pIC50 (BACE1 [2]) was 6.00 to 7.00.
Compound Cc1ncccc1-c1ccc2c(c1)[C@@]1(COC(N)=N1)c1cc(OCC(C)(C)C)ccc1O2 [Example 79, (4S)-2′-(2,2-dimethylpropoxy)-7′-(2-methyl-3-pyridinyl)spiro[1,3-oxazole-4,9′-xanthen]-2-amine] has a pIC50 (BACE1 [1]; Table II) of 6.00 to 7.00 and a pIC50 (BACE1 [2]; [5]) of 6.00 to 7.00.
CC(C)(C)C#Cc1ccc2c(c1)[C@@]1(COC(N)=N1)c1cc(-c3ccc(F)nc3)ccc1O2 [147b] gave an IC50 (BACE1 [1]) of less than 0.1 µM and an IC50 (BACE1 [2]) of 0.1 to 1 µM.
CCOC(=O)/C=C/c1ccc2c(c1)[C@]1(COC(N)=N1)c1cc(-c3cncnc3)ccc1O2 [compound 825] was tested, and the pIC50 (BACE1 [1]; Table IV, class symbols) was 6.00 to 7.00 and the pIC50 (BACE1 [2]; Table IV, class symbols) was 6.00 to 7.00.
For CC(C)(F)COc1cnc2c(c1)[C@]1(COC(N)=N1)c1cc(-c3cccnc3F)ccc1O2 [compound 449], the pIC50 (BACE1 [1]) was greater than 7.00 and the pIC50 (BACE1 [2]; HEK cells) was greater than 7.00.
For CC(C)(C)C#Cc1ccc2c(n1)[C@]1(COC(N)=N1)c1cc(-c3cncnc3)ccc1O2 [compound 526], the pIC50 (BACE1 [1]) was 6.00 to 7.00 and the pIC50 (BACE1 [2]; HEK cells) was 6.00 to 7.00.
COC(=O)CCc1ccc2c(c1)[C@]1(COC(N)=N1)c1cc(-c3cncnc3)ccc1O2 [compound 877] gave a pIC50 (BACE1 [1]; Table IV, class symbols) of 6.00 to 7.00 and a pIC50 (BACE1 [2]; Table IV, class symbols) of 6.00 to 7.00.
